How the values were obtained:
Assay type in all cases: biochemical
[1] = target: T1, human recombinant AChE (Homo sapiens, UniProt P22303); assay: Ellman assay; joint IC50 over all ATCh concentrations; settings: read-out: Approx. IC50
T1 construct: recombinant human AChE, gift from F. Nachon
Excerpt: Ellman assay; joint IC50 over all ATCh concentrations on human recombinant AChE

[2] = target: T1, human recombinant AChE; assay: Ellman assay
Excerpt: Ellman assay on human recombinant AChE

[3] = target: T2, human BChE isolated from plasma (Homo sapiens, UniProt P06276); assay: Ellman assay
T2 construct: native, purified from human plasma, gift from F. Nachon
Excerpt: Ellman assay on human BChE isolated from plasma

[4] = target: T2, human BChE isolated from plasma; assay: Ellman assay; joint IC50 over all ATCh concentrations; settings: read-out: Approx. IC50
Excerpt: Ellman assay; joint IC50 over all ATCh concentrations on human BChE isolated from plasma

T2 sequence (P06276 29-602): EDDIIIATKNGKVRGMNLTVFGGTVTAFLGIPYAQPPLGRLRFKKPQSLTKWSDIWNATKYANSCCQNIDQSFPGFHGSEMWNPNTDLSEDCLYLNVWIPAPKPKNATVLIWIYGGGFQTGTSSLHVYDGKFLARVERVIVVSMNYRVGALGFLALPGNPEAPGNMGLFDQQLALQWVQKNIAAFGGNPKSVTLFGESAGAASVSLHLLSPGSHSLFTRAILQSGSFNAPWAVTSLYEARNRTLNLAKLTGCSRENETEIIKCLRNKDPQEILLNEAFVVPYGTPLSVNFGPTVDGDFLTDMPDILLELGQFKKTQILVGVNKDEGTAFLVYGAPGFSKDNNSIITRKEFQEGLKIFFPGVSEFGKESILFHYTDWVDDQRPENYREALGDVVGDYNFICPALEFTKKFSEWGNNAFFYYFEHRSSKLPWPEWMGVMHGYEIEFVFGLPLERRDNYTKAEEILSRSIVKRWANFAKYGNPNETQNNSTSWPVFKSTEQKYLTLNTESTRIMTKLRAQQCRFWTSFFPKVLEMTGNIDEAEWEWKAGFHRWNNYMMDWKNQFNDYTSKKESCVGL
T1 sequence (P22303 32-614): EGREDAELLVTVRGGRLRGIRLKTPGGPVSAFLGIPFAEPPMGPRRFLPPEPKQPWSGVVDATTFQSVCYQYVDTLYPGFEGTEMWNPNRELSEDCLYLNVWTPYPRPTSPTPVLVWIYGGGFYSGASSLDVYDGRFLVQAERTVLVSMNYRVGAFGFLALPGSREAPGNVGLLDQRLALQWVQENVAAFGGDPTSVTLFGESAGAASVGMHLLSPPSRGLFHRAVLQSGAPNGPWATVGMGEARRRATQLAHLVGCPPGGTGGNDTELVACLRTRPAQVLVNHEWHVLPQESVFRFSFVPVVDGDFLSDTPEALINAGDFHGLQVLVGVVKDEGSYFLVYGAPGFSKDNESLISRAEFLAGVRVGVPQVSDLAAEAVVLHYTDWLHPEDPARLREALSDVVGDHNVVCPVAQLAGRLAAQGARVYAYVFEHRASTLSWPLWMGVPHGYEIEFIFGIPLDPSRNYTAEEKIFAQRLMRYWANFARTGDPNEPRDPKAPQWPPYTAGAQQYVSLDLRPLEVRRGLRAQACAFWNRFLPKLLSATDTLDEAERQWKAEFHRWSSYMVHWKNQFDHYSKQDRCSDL

O=C(O)CNCP(=O)(O)O [glyphosate, N-(phosphonomethyl)glycine]
IC50 [1]: ~25.1 mM
Ki [2]: 28.4 ± 2.7 mM
Ki [3]: 19.3 ± 1.8 mM
IC50 [4]: ~20 mM

Source: article PMC10978157, “Environmental exposure to glyphosate does not inhibit human acetylcholinesterase and butyrylcholinesterase” (Archives of Industrial Hygiene and Toxicology, 2024)
